Measured values from patent US10542754B2, “Synergistic effect of spinetoram and methoxyfenozide for control of stem borer on rice” (Dow AgroSciences LLC, priority 2014, dated 2020).

System: striped stem borer (SSB)
Assay: Laboratory bioassay, rice stem dipping method, against striped stem borer on rice
Conditions: for Numbers of Dead SSB: four replicates
Excerpt: Cotoxicity Coefficient (CTC) value was used to determine an existence of synergic effect between spinetoram and methoxyfenozide in the formulated pesticidal composition.
The CTC value of the formulated composition was used to determine the biological responses to the treatment: additive, synergism, or antagonism. The CTC value of more than 120 indicates a synergistic effect between the combined pesticidal compounds. The CTC value of about 80 to 120 indicates an additive effect between the combined pesticidal compounds. The CTC value of less than 80 indicates antagonistic effect between the combined pesticidal compounds
Pesticidal compositions were prepared by thoroughly mixing spinetoram and methoxyfenozide at various weight ratios as shown in TABLE 3.
The effectiveness of the pesticidal compositions for controlling of striped stem borer on rice was determined using laboratory bioassays, and compared to those of three controls. In the first control, only spinetoram was used for the treatment. In the second control, only methoxyfenozide was used for the treatment. In the third control, no pesticide was used.
The rice stem dipping method based on Standard Method for Bioassay Test (Chinese Standard Method NY/T1154.4-2006: Continuous Immersion Test for Insecticide Systemic Activity) was used to conduct the laboratory bioassays.
Five stems of rice were dipped into the solutions of pestidical compositions for 10 seconds and then taken out for drying in the air. The treated stems were placed into glass tubes. Treatment with water, solvent, and emulsifier alone was used as reference check. There were four replicates for each treatment. About 10±1 larvae of third-instar striped stem borer were placed into each glass tube. The openings of the tubes were covered with gauze. Laboratory bioassays were conducted at room temperature. The number of dead larvae was recorded at 72 hours following the treatment.

[1] = Chilo suppressalis, in Oryza sativa, 72 h

Compound: COc1cccc(C(=O)NN(C(=O)c2cc(C)cc(C)c2)C(C)(C)C)c1C [Methoxyfenozide, methoxyfenozide]
- LC50 [1]: 21.1 µg/mL
- mortality at 2.5 µg/mL [1]: 4.77%
- mortality at 5 µg/mL [1]: 13.6%
- mortality at 10 µg/mL [1]: 28.4%
- mortality at 20 µg/mL [1]: 43.9%
- mortality at 40 µg/mL [1]: 67.5%
- mortality at 80 µg/mL [1]: 87.5%
- Numbers of Dead SSB (mass concentration 2.5 mg/L, 72 hours): 0.5
- Numbers of Dead SSB (mass concentration 5 mg/L, 72 hours): 1.5
- Numbers of Dead SSB (mass concentration 10 mg/L, 72 hours): 3
- Numbers of Dead SSB (mass concentration 20 mg/L, 72 hours): 7
- Numbers of Dead SSB (mass concentration 40 mg/L, 72 hours): 6.75
- Numbers of Dead SSB (mass concentration 80 mg/L, 72 hours): 8.75
- LC90 (third-instar larvae, 72 hours): 107.74 µg/mL

Compound: spinetoram
- Numbers of Dead SSB (mass concentration 0.125 mg/L, 72 hours): 0.5
- Mortality (%) (mass concentration 0.125 mg/L, third-instar larvae, 72 hours): 4.55%
- Numbers of Dead SSB (mass concentration 0.25 mg/L, 72 hours): 2
- Mortality (%) (mass concentration 0.25 mg/L, third-instar larvae, 72 hours): 18.41%
- Numbers of Dead SSB (mass concentration 0.5 mg/L, 72 hours): 4
- Mortality (%) (mass concentration 0.5 mg/L, third-instar larvae, 72 hours): 37.73%
- Numbers of Dead SSB (mass concentration 1 mg/L, 72 hours): 6.75
- Mortality (%) (mass concentration 1 mg/L, third-instar larvae, 72 hours): 64.09%
- Numbers of Dead SSB (mass concentration 2 mg/L, 72 hours): 8.5
- Mortality (%) (mass concentration 2 mg/L, third-instar larvae, 72 hours): 81.14%
- Numbers of Dead SSB (mass concentration 4 mg/L, 72 hours): 9.75
- Mortality (%) (mass concentration 4 mg/L, third-instar larvae, 72 hours): 95.23%
- LC50 (third-instar larvae, 72 hours): 0.71 µg/mL
- LC90 (third-instar larvae, 72 hours): 2.76 µg/mL
